Laboratory results: article PMC9898036, “VIP152 is a selective CDK9 inhibitor with pre-clinical in vitro and in vivo efficacy in chronic lymphocytic leukemia” (Leukemia, 2022)

Tests used:
[1] = biological target: KIT(V559D,V654A) (Homo sapiens, UniProt P10721, V559D/V654A); test: KINOMEscan: KIT(V559D,V654A); format: binding; details: 1000 nM, read-out: Percent Control
[2] = system: HG-3 cell line; test: Nuclear CDK9 co-immunoprecipitation (LC-MS/MS proteomics, western blot); format: cell-based, human
Experimental: HG-3 cell line was treated with 1 µM VIP152 or DMSO for 2 h; nuclei were isolated using the Nuclear Complex Co-IP Kit (Active Motif) according to the manufacturer’s protocol. Nuclear lysate was immunoprecipitated using a CDK9 antibody (ab239364 - Abcam) or isotype control (3900 S – Cell Signaling Technology) with Dynabeads™ Protein G Immunoprecipitation Kit (10007D – ThermoFisher Scientific). Beads were submitted for proteomics to the Ohio State University Proteomics Center at the Campus Chemical Instrument Center. Full proteomic methods are available in the supplementary methods section.
Having observed the transcriptomic effects of VIP152 inhibition, we hypothesized a change in the P-TEFb complex would occur validating the mechanism of this agent. Previously, Dow et al. described changes in P-TEFb nuclear complexes with flavopiridol treatment; specifically, they observed loss of nuclear speckles of P-TEFb complexes containing HEXIM1, a major component of the 7SK-RNA complex that inhibits P-TEFb. We observed an increase in the 42 kDa and 55 kDa isoforms of CDK9, as well as Cyclin T1, in the nuclear fraction following treatment (Fig. 4A, B). […] Next, a nuclear immunoprecipitation of CDK9 after a two-hour drugging in the HG-3 cell line (n = 3) was performed, followed by liquid chromatography with tandem mass spectrometry (LC-MS/MS). We detected 226 differentially co-localized proteins and again observed an enrichment in the treated fraction for P-TEFb (Fig. 4B, C). […] These findings were validated via western blot in the MEC-1 and HG-3 cell lines (Supplementary Fig. 9). […] Finally, to appreciate the effect of inhibition on the association with the inhibitory 7SK-RNA complex, we performed reciprocal nuclear co-immunoprecipitation of CDK9 and HEXIM1 (Fig. 4E and Supplementary Fig. 10). […] This decrease in 7SK association due to inhibition is consistent with other work characterizing the disruption of the 7SK complex as a result of cellular stresses.
MSGF+ search engine against a reviewed UniProt human proteome (downloaded 12/07/2020) containing the cRAP and MaxQuant contaminant FASTAs32. Search parameters included: full trypsin digest, 1 missed cleavage, carbamidomethylation of cysteine as a fixed modification and oxidation of methionine as a variable modification with precursor and fragment mass tolerances of 10 ppm and 5 Da. PSM rescoring was performed with Percolator and protein inference was performed with Epifany across all samples, setting peptide and protein false discovery rates to 0.05. […]
All data analysis was performed with R (version 3.6.2) with various packages and is included in supplemental material (zipped File_S1). […] Data was quantile normalized, and significance (p-value < 0.05) determined by a modified exact test. […]

[3] = biological target: ACVR1 (Homo sapiens, UniProt Q04771); test: KINOMEscan: ACVR1; format: binding; details: 1000 nM, read-out: Percent Control
[4] = biological target: FLT3(R834Q) (Homo sapiens, UniProt P36888, R834Q); test: KINOMEscan: FLT3(R834Q); format: binding; details: 1000 nM, read-out: Percent Control
[5] = biological target: TRKA (Homo sapiens, UniProt P04629); test: KINOMEscan: TRKA; format: binding; details: 100 nM, read-out: Percent Control
[6] = biological target: DAPK2 (Homo sapiens, UniProt Q9UIK4); test: KINOMEscan: DAPK2; format: binding; details: 1000 nM, read-out: Percent Control
[7] = biological target: FRK (Homo sapiens, UniProt P42685); test: KINOMEscan: FRK; format: binding; details: 1000 nM, read-out: Percent Control
[8] = biological target: CDKL3 (Homo sapiens, UniProt Q8IVW4); test: KINOMEscan: CDKL3; format: binding; details: 1000 nM, read-out: Percent Control
[9] = biological target: CSNK1D (Homo sapiens, UniProt P48730); test: KINOMEscan: CSNK1D; format: binding; details: 1000 nM, read-out: Percent Control
[10] = biological target: BMX (Homo sapiens, UniProt P51813); test: KINOMEscan: BMX; format: binding; details: 1000 nM, read-out: Percent Control
[11] = biological target: WNK2 (Homo sapiens, UniProt Q9Y3S1); test: KINOMEscan: WNK2; format: binding; details: 100 nM, read-out: Percent Control
[12] = biological target: CDK8 (Homo sapiens, UniProt P49336); test: KINOMEscan: CDK8; format: binding; details: 1000 nM, read-out: Percent Control
[13] = biological target: Dopamine D1 (Homo sapiens, UniProt P21728); test: Eurofins Diversity Panel; format: binding; details: hum, Conc. 10 μM
[14] = biological target: HCK (Homo sapiens, UniProt P08631); test: KINOMEscan: HCK; format: binding; details: 1000 nM, read-out: Percent Control
[15] = biological target: Opiate δ1 (OP1, DOP) (Homo sapiens, UniProt P41143); test: Eurofins Diversity Panel; format: binding; details: hum, Conc. 10 μM
[16] = biological target: Endothelin ETA (Homo sapiens, UniProt P25101); test: Eurofins Diversity Panel; format: binding; details: hum, Conc. 10 μM

Sequence of HCK (P08631 whole entry): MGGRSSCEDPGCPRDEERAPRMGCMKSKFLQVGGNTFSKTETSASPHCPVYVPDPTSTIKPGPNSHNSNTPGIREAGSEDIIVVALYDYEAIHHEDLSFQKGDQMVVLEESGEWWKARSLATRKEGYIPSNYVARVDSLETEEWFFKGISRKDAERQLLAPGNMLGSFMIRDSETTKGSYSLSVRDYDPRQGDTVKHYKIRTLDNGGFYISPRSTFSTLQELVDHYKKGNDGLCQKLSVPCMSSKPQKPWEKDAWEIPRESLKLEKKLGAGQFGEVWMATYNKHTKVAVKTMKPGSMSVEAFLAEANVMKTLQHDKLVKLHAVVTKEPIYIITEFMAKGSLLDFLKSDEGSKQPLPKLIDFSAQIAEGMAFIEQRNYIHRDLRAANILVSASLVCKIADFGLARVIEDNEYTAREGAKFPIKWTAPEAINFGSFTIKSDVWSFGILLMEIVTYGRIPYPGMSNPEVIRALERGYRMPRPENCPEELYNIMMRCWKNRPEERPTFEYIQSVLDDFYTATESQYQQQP
Sequence of CSNK1D (P48730 whole entry): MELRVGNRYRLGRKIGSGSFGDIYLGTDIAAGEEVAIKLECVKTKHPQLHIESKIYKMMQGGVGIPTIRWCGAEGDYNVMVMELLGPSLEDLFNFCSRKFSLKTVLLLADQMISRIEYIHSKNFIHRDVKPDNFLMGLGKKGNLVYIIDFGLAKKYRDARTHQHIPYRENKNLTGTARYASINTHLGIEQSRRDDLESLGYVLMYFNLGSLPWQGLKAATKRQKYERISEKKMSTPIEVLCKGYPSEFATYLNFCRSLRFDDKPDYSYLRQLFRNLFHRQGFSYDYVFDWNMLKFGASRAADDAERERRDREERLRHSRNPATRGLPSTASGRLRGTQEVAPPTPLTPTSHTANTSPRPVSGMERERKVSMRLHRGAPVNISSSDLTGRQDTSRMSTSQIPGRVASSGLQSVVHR
Sequence of CDKL3 (Q8IVW4 whole entry): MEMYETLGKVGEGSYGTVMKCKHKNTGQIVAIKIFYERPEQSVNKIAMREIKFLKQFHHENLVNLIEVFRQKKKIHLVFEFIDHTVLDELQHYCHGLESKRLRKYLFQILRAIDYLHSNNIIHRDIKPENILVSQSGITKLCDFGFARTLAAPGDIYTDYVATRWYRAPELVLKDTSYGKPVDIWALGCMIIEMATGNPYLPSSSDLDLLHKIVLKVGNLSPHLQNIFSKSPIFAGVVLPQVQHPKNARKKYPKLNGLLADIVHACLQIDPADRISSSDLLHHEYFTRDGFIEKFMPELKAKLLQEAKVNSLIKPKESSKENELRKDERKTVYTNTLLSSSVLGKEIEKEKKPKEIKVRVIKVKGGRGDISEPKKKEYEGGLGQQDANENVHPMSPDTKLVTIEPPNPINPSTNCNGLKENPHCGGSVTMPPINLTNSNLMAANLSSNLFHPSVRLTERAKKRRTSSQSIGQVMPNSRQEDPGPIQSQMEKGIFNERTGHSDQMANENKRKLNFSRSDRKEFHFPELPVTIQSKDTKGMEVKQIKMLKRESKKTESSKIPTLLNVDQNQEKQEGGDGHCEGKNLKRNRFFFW
Sequence of ACVR1 (Q04771 21-509): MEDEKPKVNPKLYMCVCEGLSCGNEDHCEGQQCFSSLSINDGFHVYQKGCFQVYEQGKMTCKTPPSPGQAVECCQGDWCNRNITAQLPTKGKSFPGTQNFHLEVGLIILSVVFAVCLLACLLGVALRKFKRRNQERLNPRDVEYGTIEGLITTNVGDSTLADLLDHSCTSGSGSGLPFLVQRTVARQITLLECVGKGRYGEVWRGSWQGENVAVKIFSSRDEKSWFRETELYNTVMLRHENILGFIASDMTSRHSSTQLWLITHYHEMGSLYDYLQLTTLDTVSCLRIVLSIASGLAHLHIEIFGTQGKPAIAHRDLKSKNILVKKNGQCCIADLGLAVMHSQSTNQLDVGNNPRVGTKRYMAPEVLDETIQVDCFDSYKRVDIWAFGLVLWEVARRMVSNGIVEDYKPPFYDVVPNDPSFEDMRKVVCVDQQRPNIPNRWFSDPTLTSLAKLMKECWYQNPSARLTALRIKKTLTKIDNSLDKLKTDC
Sequence of BMX (P51813 whole entry): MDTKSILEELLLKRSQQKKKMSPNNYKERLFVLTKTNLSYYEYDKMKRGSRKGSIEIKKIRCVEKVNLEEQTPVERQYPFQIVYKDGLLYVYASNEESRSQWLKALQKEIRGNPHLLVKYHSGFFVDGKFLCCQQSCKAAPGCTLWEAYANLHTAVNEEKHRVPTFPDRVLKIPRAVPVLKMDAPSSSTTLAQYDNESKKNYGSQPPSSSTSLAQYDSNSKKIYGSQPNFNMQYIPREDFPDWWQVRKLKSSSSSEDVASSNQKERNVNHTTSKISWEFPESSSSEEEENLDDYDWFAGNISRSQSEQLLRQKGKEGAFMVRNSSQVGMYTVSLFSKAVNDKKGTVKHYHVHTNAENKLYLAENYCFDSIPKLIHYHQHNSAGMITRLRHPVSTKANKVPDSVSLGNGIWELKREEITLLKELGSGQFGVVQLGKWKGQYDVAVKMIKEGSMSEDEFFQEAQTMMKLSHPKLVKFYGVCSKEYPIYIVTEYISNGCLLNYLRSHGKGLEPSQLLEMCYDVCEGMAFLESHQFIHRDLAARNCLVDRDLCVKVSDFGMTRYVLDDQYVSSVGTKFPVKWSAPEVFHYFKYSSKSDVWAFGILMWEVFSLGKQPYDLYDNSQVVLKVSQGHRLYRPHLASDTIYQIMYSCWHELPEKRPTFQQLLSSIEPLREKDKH
Sequence of TRKA (P04629 33-796): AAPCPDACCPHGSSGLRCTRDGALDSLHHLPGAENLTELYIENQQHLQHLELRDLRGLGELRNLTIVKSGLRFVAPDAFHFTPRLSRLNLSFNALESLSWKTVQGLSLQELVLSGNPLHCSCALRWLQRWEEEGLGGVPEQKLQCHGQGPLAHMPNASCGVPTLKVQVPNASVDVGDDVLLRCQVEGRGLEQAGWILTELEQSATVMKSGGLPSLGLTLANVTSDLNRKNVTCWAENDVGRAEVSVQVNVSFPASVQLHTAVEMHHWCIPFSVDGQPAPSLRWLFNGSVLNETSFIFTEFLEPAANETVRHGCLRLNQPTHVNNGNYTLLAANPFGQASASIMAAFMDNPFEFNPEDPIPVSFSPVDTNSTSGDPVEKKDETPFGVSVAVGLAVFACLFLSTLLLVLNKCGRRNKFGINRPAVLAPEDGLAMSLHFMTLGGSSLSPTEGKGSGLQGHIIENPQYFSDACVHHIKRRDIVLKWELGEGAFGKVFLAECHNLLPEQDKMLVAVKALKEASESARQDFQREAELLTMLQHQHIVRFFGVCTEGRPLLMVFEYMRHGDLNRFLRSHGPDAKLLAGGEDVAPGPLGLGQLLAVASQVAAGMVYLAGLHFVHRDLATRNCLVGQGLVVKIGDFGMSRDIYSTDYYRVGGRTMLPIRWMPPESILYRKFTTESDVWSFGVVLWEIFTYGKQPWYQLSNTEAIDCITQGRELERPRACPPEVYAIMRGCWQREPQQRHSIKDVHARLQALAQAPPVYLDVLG
Sequence of Dopamine D1 (P21728 whole entry): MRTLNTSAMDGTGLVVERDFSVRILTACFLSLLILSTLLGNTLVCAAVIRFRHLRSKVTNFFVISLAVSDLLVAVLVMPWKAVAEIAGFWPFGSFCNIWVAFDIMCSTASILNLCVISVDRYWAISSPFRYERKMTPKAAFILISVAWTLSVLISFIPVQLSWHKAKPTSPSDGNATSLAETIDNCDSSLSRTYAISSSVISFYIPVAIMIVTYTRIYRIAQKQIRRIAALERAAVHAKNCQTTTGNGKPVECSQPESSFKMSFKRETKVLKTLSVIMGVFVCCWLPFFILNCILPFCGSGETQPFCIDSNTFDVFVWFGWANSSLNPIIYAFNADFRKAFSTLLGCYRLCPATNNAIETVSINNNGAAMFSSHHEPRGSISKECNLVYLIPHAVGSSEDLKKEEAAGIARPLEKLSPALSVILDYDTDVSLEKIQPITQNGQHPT
Sequence of CDK8 (P49336 whole entry): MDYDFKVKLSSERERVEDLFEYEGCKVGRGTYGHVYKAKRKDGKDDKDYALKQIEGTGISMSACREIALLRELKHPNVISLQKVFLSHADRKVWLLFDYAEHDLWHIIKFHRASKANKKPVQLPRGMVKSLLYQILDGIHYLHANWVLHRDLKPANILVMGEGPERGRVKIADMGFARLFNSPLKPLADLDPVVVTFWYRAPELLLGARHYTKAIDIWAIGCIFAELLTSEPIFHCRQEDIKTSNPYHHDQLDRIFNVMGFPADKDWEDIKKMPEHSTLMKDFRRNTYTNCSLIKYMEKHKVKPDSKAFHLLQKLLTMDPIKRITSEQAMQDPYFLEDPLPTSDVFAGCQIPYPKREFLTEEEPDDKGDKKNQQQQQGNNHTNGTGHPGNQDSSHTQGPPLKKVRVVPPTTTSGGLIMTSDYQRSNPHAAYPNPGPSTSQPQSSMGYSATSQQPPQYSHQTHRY
Sequence of FRK (P42685 whole entry): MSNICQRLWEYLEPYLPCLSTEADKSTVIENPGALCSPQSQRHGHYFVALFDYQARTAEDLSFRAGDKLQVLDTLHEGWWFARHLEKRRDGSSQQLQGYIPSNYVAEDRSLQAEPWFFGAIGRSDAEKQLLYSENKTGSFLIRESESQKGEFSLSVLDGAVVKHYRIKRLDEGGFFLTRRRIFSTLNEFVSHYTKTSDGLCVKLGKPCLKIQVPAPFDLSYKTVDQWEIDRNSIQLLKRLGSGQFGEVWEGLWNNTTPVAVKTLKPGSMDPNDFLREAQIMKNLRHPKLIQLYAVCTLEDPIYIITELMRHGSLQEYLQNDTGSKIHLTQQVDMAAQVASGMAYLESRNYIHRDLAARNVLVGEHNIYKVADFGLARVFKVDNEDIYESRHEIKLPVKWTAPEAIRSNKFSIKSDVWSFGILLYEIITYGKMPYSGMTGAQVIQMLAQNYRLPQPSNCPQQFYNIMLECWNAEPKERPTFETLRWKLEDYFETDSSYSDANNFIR

## COc1cc(F)ccc1-c1cc(Nc2cc(CS(C)(=N)=O)ccn2)ncc1F (stereo not shown) [VIP152]
[1]
  remaining binding at 1 µM: 100%
[2]; 1 µM, 2 h, nuclear IP of CDK9
  association with transcription-associated machinery (SPT6H and IWS1) and RPB3: decreased association
[2]; 1 µM, 2 h, nuclear IP of CDK9, LC-MS/MS
  differentially co-localized proteins: 226
[2]; 1 µM, 2 h, nuclear IP of CDK9, proteomics
  association with DDX21, Fold Change: 1.47
[2]; HG-3 and MEC-1, reciprocal nuclear co-immunoprecipitation of CDK9 and HEXIM1
  association of CDK9 with 7SK-RNA complex components (HEXIM1, MEPCE, LARP7): decreased association
[3]
  remaining binding at 1 µM: 64%
[4]
  remaining binding at 1 µM: 78%
[5]
  remaining binding at 0.1 µM: 65%
[6]
  remaining binding at 1 µM: 89%
[7]
  remaining binding at 1 µM: 47%
[8]
  remaining binding at 1 µM: 53%
[9]
  remaining binding at 1 µM: 94%
[10]
  remaining binding at 1 µM: 3.8%
[11]
  remaining binding at 0.1 µM: 100%
[12]
  remaining binding at 1 µM: 93%
[13]
  inhibition at 10 µM: 14%
[14]
  remaining binding at 1 µM: 82%
[15]
  inhibition at 10 µM: 9%
[16]
  inhibition at 10 µM: 13%
